Measurements reported in US6638957B1, “Use of compounds with a nitrogen-oxygen heterocycle” (Jomaa Pharmaka GmbH, priority 1999, dated 2003).
In brackets after ≈: the same amount, converted by molar mass. Read-outs that look alike come from different tables or passages of the source.

How the values were obtained:
Alopecurus myosuroides [1] = experiment: herbicidal activity, Erde Nachauflauf; type: in vivo
Procedure: (§1) The determination of herbicidal activity is performed according to standard procedure. Again the compounds listed on page 9 are tested.

Amaranthus retroflexus [2] = experiment: herbicidal activity, Erde Nachauflauf; type: in vivo
Procedure: as §1

Zea mays [3] = experiment: herbicidal activity, Erde Nachauflauf; type: in vivo
Procedure: as §1

Setaria viridis [4] = experiment: herbicidal activity, Erde Nachauflauf; type: in vivo
Procedure: as §1

Galium aperine [5] = experiment: herbicidal activity, Erde Nachauflauf; type: in vivo
Procedure: as §1

Sinapis arvensis [6] = experiment: herbicidal activity, Erde Nachauflauf; type: in vivo; conditions: Mutarda arvensis
Procedure: as §1

Cyperus esculentus [7] = experiment: herbicidal activity, Erde Nachauflauf; type: in vivo
Procedure: as §1

Xanthium strumarium [8] = experiment: herbicidal activity, Erde Nachauflauf; type: in vivo
Procedure: as §1

Abutilon theophrasti [9] = experiment: herbicidal activity, Erde Nachauflauf; type: in vivo
Procedure: as §1

Beta vulgaris [10] = experiment: herbicidal activity, Erde Nachauflauf; type: in vivo
Procedure: as §1

Avena fatua [11] = experiment: herbicidal activity, Erde Nachauflauf; type: in vivo
Procedure: as §1

Pseudomonas aeruginosa = experiment: antibacterial activity, minimum inhibition concentration in liquid culture; type: cell-based; conditions: read-out: MIC(nM) of bacteria culture (Pseudomonas aeruginosa)
Procedure: A dilution series comprising the concentrations 500, 100, 50, 10 and 0 μmol 1^−1 of the individual compounds in LB medium is introduced into 5 culture microtubes in a volume of 0,5 ml. The tubes were inoculated with 10 μl of an overnight culture of E. coli K12 and shaken overnight at 37° C. The growth of the bacteria was assessed on the basis of the turbidity of the medium. The minimum concentration causing inhibition of bacterial growth was determined (minimum inhibition concentration MIC)
The antibacterial activity of P. aeruginosa was determined in the same manner.

Alopecurus myosuroides [12] = experiment: herbicidal activity, Erde Vorauflauf; type: in vivo
Procedure: as §1

Amaranthus retroflexus [13] = experiment: herbicidal activity, Erde Vorauflauf; type: in vivo
Procedure: as §1

Zea mays [14] = experiment: herbicidal activity, Erde Vorauflauf; type: in vivo
Procedure: as §1

Setaria viridis [15] = experiment: herbicidal activity, Erde Vorauflauf; type: in vivo
Procedure: as §1

Galium aperine [16] = experiment: herbicidal activity, Erde Vorauflauf; type: in vivo
Procedure: as §1

Sinapis arvensis [17] = experiment: herbicidal activity, Erde Vorauflauf; type: in vivo; conditions: Mutarda arvensis
Procedure: as §1

Cyperus esculentus [18] = experiment: herbicidal activity, Erde Vorauflauf; type: in vivo
Procedure: as §1

Xanthium strumarium [19] = experiment: herbicidal activity, Erde Vorauflauf; type: in vivo
Procedure: as §1

Abutilon theophrasti [20] = experiment: herbicidal activity, Erde Vorauflauf; type: in vivo
Procedure: as §1

Beta vulgaris [21] = experiment: herbicidal activity, Erde Vorauflauf; type: in vivo
Procedure: as §1

Avena fatua [22] = experiment: herbicidal activity, Erde Vorauflauf; type: in vivo
Procedure: as §1

Reis = experiment: herbicidal activity, Hydro Vorauflauf; type: in vivo
Procedure: as §1

Echinochloa = experiment: herbicidal activity, Hydro Vorauflauf; type: in vivo
Procedure: as §1

Lepidium = experiment: herbicidal activity, Hydro Vorauflauf; type: in vivo
Procedure: as §1

Solanum = experiment: herbicidal activity, Hydro Vorauflauf; type: in vivo
Procedure: as §1

[23] = biological target: T1, DOXP reductoisomerase of Escherichia coli (UniProt P56139); experiment: inhibition of recombinant DOXP reductoisomerase (NADPH oxidation); type: biochemical; conditions: 1 mM DOXP, 0,3 mM NADPH, pH 7,5; read-out: IC50(nM) of DOXP reductoisomerase from Helicobacter pilori
T1 sequence (P56139 1-368): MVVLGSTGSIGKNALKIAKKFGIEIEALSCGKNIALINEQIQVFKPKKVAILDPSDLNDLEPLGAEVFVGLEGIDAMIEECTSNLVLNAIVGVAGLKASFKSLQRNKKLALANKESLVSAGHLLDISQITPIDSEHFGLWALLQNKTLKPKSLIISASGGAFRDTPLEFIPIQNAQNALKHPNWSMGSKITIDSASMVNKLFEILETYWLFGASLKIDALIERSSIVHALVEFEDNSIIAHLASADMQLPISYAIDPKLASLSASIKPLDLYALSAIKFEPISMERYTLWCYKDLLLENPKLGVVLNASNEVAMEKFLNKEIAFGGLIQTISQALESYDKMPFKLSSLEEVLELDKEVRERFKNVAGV

Plasmodium falciparum = experiment: antimalaria activity on in vitro cultures, [3H]-hypoxanthine incorporation; type: cell-based; conditions: 72 h, inhibition of [3H]-hypoxanthine incorporation, 48 + 24 hours, read-out: IC50(nM) of malaria culture (Plasmodium falciparum)
Procedure: The antimalaria activity of the compounds listed on page 9 was determined on in vitro cultures of the malaria pathogen Plasmodium falciparum. The depressions of a 96-well microtitre plate were charged with in each case 200 μl of an asynchroneous Plasmodium falciparum culture at a parasitaemia of 0,4% and haematokrit of 2%. A serial dilution series of the compounds in triple steps between concentrations of 100 to 0,14 μmol 1^−1 was then prepared. The plates were incubated at 37° C., 3% CO2 and 5% O2 over a period of 48 hours. 30 μl medium supplemented with 27 μCi ml^−1 [^3H]-hypoxanthine were then added to each well. After incubation for 24 hours the parasites were harvested by filtration on a glass fibre filter and the radioactivity which had been incorporated was measured. The inhibition of the growth of parasites was measured as the percentage inhibition of the incorporation of tritium. Inhibition of the growth of the parasites has been determined as percentage inhibition of incorporation of tritium based on a comparison without the substance. The half-maximum inhibitory concentration (IC50) of the substance was determined by extrapolation of the values.

Compound: CC1CON(COCP(C)(=O)O)C1=O (stereo not shown) [Compound 3]
- pest or weed control at 2000 g/ha (Alopecurus myosuroides [1]; 2000 Gramm/Hektar): 60%
- pest or weed control at 2000 g/ha (Amaranthus retroflexus [2]; 2000 Gramm/Hektar): 60%
- plant injury at 2000 g/ha (Zea mays [3]; 2000 Gramm/Hektar): 70%
- pest or weed control at 2000 g/ha (Setaria viridis [4]; 2000 Gramm/Hektar): 70%
- pest or weed control at 2000 g/ha (Galium aperine [5]; 2000 Gramm/Hektar): 40%
- pest or weed control at 2000 g/ha (Sinapis arvensis [6]; 2000 Gramm/Hektar): 70%
- pest or weed control at 2000 g/ha (Cyperus esculentus [7]; 2000 Gramm/Hektar): 0%
- pest or weed control at 2000 g/ha (Xanthium strumarium [8]; 2000 Gramm/Hektar): 60%
- pest or weed control at 2000 g/ha (Abutilon theophrasti [9]; 2000 Gramm/Hektar): 60%
- plant injury at 2000 g/ha (Beta vulgaris [10]; 2000 Gramm/Hektar): 90%
- pest or weed control at 2000 g/ha (Avena fatua [11]; 2000 Gramm/Hektar): 50%
- MIC (Pseudomonas aeruginosa): 2200 nM (≈ 0.491 µg/mL)
- pest or weed control at 2000 g/ha (Alopecurus myosuroides [12]; 2000 Gramm/Hektar): 60%
- pest or weed control at 2000 g/ha (Amaranthus retroflexus [13]; 2000 Gramm/Hektar): 0%
- plant injury at 2000 g/ha (Zea mays [14]; 2000 Gramm/Hektar): 0%
- pest or weed control at 2000 g/ha (Setaria viridis [15]; 2000 Gramm/Hektar): 0%
- pest or weed control at 2000 g/ha (Galium aperine [16]; 2000 Gramm/Hektar): 0%
- pest or weed control at 2000 g/ha (Sinapis arvensis [17]; 2000 Gramm/Hektar): 30%
- pest or weed control at 2000 g/ha (Cyperus esculentus [18]; 2000 Gramm/Hektar): 0%
- pest or weed control at 2000 g/ha (Xanthium strumarium [19]; 2000 Gramm/Hektar): 0%
- pest or weed control at 2000 g/ha (Abutilon theophrasti [20]; 2000 Gramm/Hektar): 0%
- plant injury at 2000 g/ha (Beta vulgaris [21]; 2000 Gramm/Hektar): 30%
- pest or weed control at 2000 g/ha (Avena fatua [22]; 2000 Gramm/Hektar): 0%
- pest or weed control at 4000 g/ha (Reis; 4000 Gramm/Hektar): 40%
- pest or weed control at 4000 g/ha (Echinochloa; 4000 Gramm/Hektar): 40%
- pest or weed control at 4000 g/ha (Lepidium; 4000 Gramm/Hektar): 30%
- pest or weed control at 4000 g/ha (Solanum; 4000 Gramm/Hektar): 0%
- IC50 [23]: 125 nM
- IC50 (Plasmodium falciparum): 1700 nM

Compound: CC1(C)CON(C(=O)CP(C)(=O)O)C1=O [Compound 1]
- pest or weed control at 500 g/ha (Alopecurus myosuroides [1]; 500 Gramm/Hektar): 50%
- pest or weed control at 500 g/ha (Amaranthus retroflexus [2]; 500 Gramm/Hektar): 0%
- plant injury at 500 g/ha (Zea mays [3]; 500 Gramm/Hektar): 80%
- pest or weed control at 500 g/ha (Setaria viridis [4]; 500 Gramm/Hektar): 95%
- pest or weed control at 500 g/ha (Galium aperine [5]; 500 Gramm/Hektar): 90%
- pest or weed control at 500 g/ha (Sinapis arvensis [6]; 500 Gramm/Hektar): 95%
- pest or weed control at 500 g/ha (Cyperus esculentus [7]; 500 Gramm/Hektar): 0%
- pest or weed control at 500 g/ha (Xanthium strumarium [8]; 500 Gramm/Hektar): 60%
- pest or weed control at 500 g/ha (Abutilon theophrasti [9]; 500 Gramm/Hektar): 40%
- plant injury at 500 g/ha (Beta vulgaris [10]; 500 Gramm/Hektar): 70%
- pest or weed control at 500 g/ha (Avena fatua [11]; 500 Gramm/Hektar): 50%
- MIC (Pseudomonas aeruginosa; LB medium, overnight at 37° C., turbidity): 500 nM (≈ 0.118 µg/mL)
- pest or weed control at 500 g/ha (Alopecurus myosuroides [12]; 500 Gramm/Hektar): 50%
- pest or weed control at 500 g/ha (Amaranthus retroflexus [13]; 500 Gramm/Hektar): 0%
- plant injury at 500 g/ha (Zea mays [14]; 500 Gramm/Hektar): 0%
- pest or weed control at 500 g/ha (Setaria viridis [15]; 500 Gramm/Hektar): 0%
- pest or weed control at 500 g/ha (Galium aperine [16]; 500 Gramm/Hektar): 0%
- pest or weed control at 500 g/ha (Sinapis arvensis [17]; 500 Gramm/Hektar): 40%
- pest or weed control at 500 g/ha (Cyperus esculentus [18]; 500 Gramm/Hektar): 0%
- pest or weed control at 500 g/ha (Xanthium strumarium [19]; 500 Gramm/Hektar): 0%
- pest or weed control at 500 g/ha (Abutilon theophrasti [20]; 500 Gramm/Hektar): 0%
- plant injury at 500 g/ha (Beta vulgaris [21]; 500 Gramm/Hektar): 30%
- pest or weed control at 500 g/ha (Avena fatua [22]; 500 Gramm/Hektar): 0%
- pest or weed control at 1000 g/ha (Reis; 1000 Gramm/Hektar): 50%
- pest or weed control at 1000 g/ha (Echinochloa; 1000 Gramm/Hektar): 80%
- pest or weed control at 1000 g/ha (Lepidium; 1000 Gramm/Hektar): 40%
- pest or weed control at 1000 g/ha (Solanum; 1000 Gramm/Hektar): 0%
- IC50 [23]: 22 nM
- IC50 (Plasmodium falciparum): 800 nM
